Experimental data published in patent US8178669B2, “Fluorescent probe for peroxynitrite” (The University of Tokyo, priority 2005, dated 2012).

Legend:
[1] = Reaction of Compound 4 and peroxynitrite (fluorescence spectrum); conditions: 10 μmol/L Compound 4, 100 mmol/L phosphate buffer pH 7.4; peroxynitrite 1-50 μmol/L; after 60 seconds; excitation 505 nm
Method: A 10 μmol/L solution of Compound 4 was prepared by diluting a 20 mmol/L solution of Compound 4 in DMF with a 100 mmol/L phosphate buffer (pH 7.4). The solution was added with peroxynitrite solutions of 2 mmol/L, 5 mmol/L, 10 mmol/L, 20 mmol/L and 80 mmol/L at peroxynitrite final concentrations of 1, 2, 4, 5, 10, 20 or 50 μmol/L with stirring, and after 60 seconds, fluorescence spectrum was measured (excitation wavelength: 505 nm).

[2] = Reaction of Compound 4 and various reactive oxygen species: peroxynitrite
Method: (§1) A 10 μmol/L solution of Compound 4 was prepared by diluting a 20 mmol/L solution of Compound 4 in DMF with a 100 mmol/L phosphate buffer (pH 7.4), and used for the test. The prepared solution was treated under the following conditions for 3 minutes (except for (f), for which treatment time was 30 minutes).
(a) Peroxynitrite was added to make a final concentration of 10 μmol/L.
(§2) After the reaction, change of fluorescence spectrum under each condition was measured to compare reactivities of the compound with (#2) peroxynitrite, (#3) hydrogen peroxide, (#4) singlet oxygen, (#5) hydroxyl radical, (#6) hypochlorite ion, and (#7) nitrogen monoxide.

[3] = Reaction of Compound 4 and various reactive oxygen species: hydrogen peroxide; conditions: 10 μmol/L Compound 4, pH 7.4; hydrogen peroxide 1 mmol/L, 3 minutes
Method: as §1
(b) Hydrogen peroxide was added to make a final concentration of 1 mmol/L.
as §2

[4] = Reaction of Compound 4 and various reactive oxygen species: singlet oxygen; conditions: 10 μmol/L Compound 4, pH 7.4; hydrogen peroxide 1 mmol/L and hypochlorite ions 100 μmol/L, 3 minutes
Method: as §1
(c) Hydrogen peroxide and hypochlorite ions were added to make final concentrations of 1 mmol/L and 100 μmol/L, respectively.
as §2

[5] = Reaction of Compound 4 and various reactive oxygen species: hydroxyl radical; conditions: 10 μmol/L Compound 4, pH 7.4; hydrogen peroxide 1 mmol/L and iron(II) sulfate 50 μmol/L, 3 minutes
Method: as §1
(d) Hydrogen peroxide and iron(II) sulfate were added to make final concentrations of 1 mmol/L and 50 μmol/L, respectively.
as §2

[6] = Reaction of Compound 4 and various reactive oxygen species: hypochlorite ion; conditions: 10 μmol/L Compound 4, pH 7.4; hypochlorite ions 10 μmol/L, 3 minutes
Method: as §1
(e) Hypochlorite ions were added to make a final concentration of 10 μmol/L.
as §2

[7] = Reaction of Compound 4 and various reactive oxygen species: nitrogen monoxide; conditions: 10 μmol/L Compound 4, pH 7.4; NOC-13 100 μmol/L, 30 minutes
Method: as §1
(f) NOC-13 (nitrogen monoxide discharging agent, Dojindo Laboratory) was added to make a final concentration of 100 μmol/L.
as §2

[8] = system: HeLa cells; test: Imaging of peroxynitrite using Compound 4 in HeLa cells; assay type: cell-based; conditions: HeLa cells loaded with 2 μmol/L Compound 4, 20 minutes; peroxynitrite 10 μmol/L; excitation 470 to 490 nm, emission 510 to 550 nm
Method: HeLa cells were precultured in Dulbecco's modified Eagle's medium (DMEM) supplemented with 10% (v/v) fetal bovine serum, penicillin (100 units/mL), and streptomycin (100 μg/mL) in a 5% CO2 incubator. These HeLa cells were inoculated on a 35 mm glass bottom dish (MatTek Corporation), and further cultured overnight in DMEM. After 24 hours, the medium was removed, and the HeLa cells were washed with Hank's balanced salt solution (HBSS, 2×1 mL). The HeLa cells were added with 2 mL of 2 μmol/L solution of Compound 4 in HBSS (containing 0.01% DMF and 0.01% Cremophor EL (SIGMA) as auxiliary solvents), and incubated at room temperature for 20 minutes. Then, the HeLa cells were washed with HBSS (2×1 mL). Fluorescence images before addition of peroxynitrite and after addition of peroxynitrite at a final concentration of 10 μmol/L were photographed at an excitation wavelength of 470 to 490 nm and fluorescence emission wavelength of 510 to 550 nm.
Among the photographs, (A) is a differential interference microscope image of HeLa cells loaded with Compound 4, (B) is a pseudo color fluorescence image of fluorescence intensity before addition of peroxynitrite, (C) is a pseudo color fluorescence image of fluorescence intensity after addition of peroxynitrite, and (D) is a fused image of (A) and (B).

CC1=C(C#N)C(C)=[N+]2C1=C(c1ccc(O)cc1OCC(=O)O)c1c(C)c(C#N)c(C)n1[B-]2(F)F [Compound 4, 2,6-dicyano-8-(4-hydroxy-2-carboxymethoxyphenyl)-1,3,5,7-tetramethyl-4,4-difluoro-4-bora-3a,4a-diaza-s-indacene]
change of fluorescence intensity on addition of peroxynitrite [1]: peroxynitrite addition amount-dependent increase in fluorescence intensity was observed
fluorescence after addition of peroxynitrite ([2]; 10 μmol/L Compound 4, pH 7.4, peroxynitrite 10 μmol/L, 3 minutes): emitted intense fluorescence
selectivity to peroxynitrite over other reactive oxygen species ([2]; compared with hydrogen peroxide, singlet oxygen, hydroxyl radical, hypochlorite ion, nitrogen monoxide): high selectivity to peroxynitrite
fluorescence after addition of hydrogen peroxide [3]: did not emit fluorescence at all
fluorescence after addition of singlet oxygen [4]: did not emit fluorescence at all
fluorescence after addition of hydroxyl radical [5]: did not emit fluorescence at all
fluorescence after addition of hypochlorite ion [6]: did not emit fluorescence at all
fluorescence after addition of nitrogen monoxide [7]: did not emit fluorescence at all
fluorescence imaging of peroxynitrite in cells [8]: fluorescence imaging of peroxynitrite was performable
